Assay results taken from publication PMC7717600, “Novel [(N-alkyl-3-indolylmethylene)hydrazono]oxindoles arrest cell cycle and induce cell apoptosis by inhibiting CDK2 and Bcl-2: synthesis, biological evaluation and in silico studies” (Journal of Enzyme Inhibition and Medicinal Chemistry, 2020).
Where two headings read alike, the source gives them in different places.

Key:
SNB-75 = conditions: for TGI: SNB-75
OVCAR-5 = conditions: for TGI: OVCAR-5
TK-10 = conditions: for TGI: TK-10
HOP-62 = conditions: for TGI: HOP-62
SW-620 = conditions: for TGI: SW-620
786-0 = conditions: for TGI: 786-0
NCI-H522 = conditions: for TGI: NCI-H522
MDA-MB-435 = assay: NCI SRB screening; assay type: cell-based
OVCAR-3 = conditions: for TGI: OVCAR-3
RXF 393 = conditions: for TGI: RXF 393
NCI-H23 = conditions: for TGI: NCI-H23
IGROV1 = conditions: for TGI: IGROV1
SK-MEL-28 = conditions: for TGI: SK-MEL-28
DU-145 = conditions: for TGI: DU-145
MDA-MB-468 = conditions: for TGI: MDA-MB-468
SK-MEL-2 = conditions: for TGI: SK-MEL-2
LOX IMVI = assay: NCI SRB screening; assay type: cell-based, human
U251 = conditions: for TGI: U251
[1] = SK-OV-3, listed as D - 795311 / 1

CCCn1cc(C=NN=C2C(=O)Nc3ccc(C)cc32)c2ccccc21 [Compound 8a]
GI % (BT-549; BT-549, 10 μM): 37% | Growth Percent (BT-549; BT-549, 1.00E-5 Molar): 63.53% | TGI (BT-549; BT-549, listed as D - 795311 / 1): 6.33E-6 Molar | TGI (SNB-75): 46.0 µM | GI % (SNB-75; SNB-75, 10 μM): 15% | Growth Percent (SNB-75; SNB-75, 1.00E-5 Molar): 85.63% | TGI (SNB-75; listed as D - 795311 / 1): 4.60E-5 Molar | TGI (OVCAR-5): 25.8 µM | GI % (OVCAR-5; OVCAR-5, 10 μM): 16% | Growth Percent (OVCAR-5; OVCAR-5, 1.00E-5 Molar): 84.60% | TGI (OVCAR-5; listed as D - 795311 / 1): 2.58E-5 Molar | TGI (SK-OV-3; SK-OV-3): 67.10 µM | GI % (SK-OV-3; SK-OV-3, 10 μM): 12% | Growth Percent (SK-OV-3; SK-OV-3, 1.00E-5 Molar): 88.36% | GI50 (SK-OV-3; [1]): 11.7 µM | TGI (SK-OV-3; [1]): 6.71E-5 Molar | TGI (TK-10): >100 µM | GI % (TK-10; TK-10, 10 μM): – (Only GI % higher than 10% are shown) | Growth Percent (TK-10; TK-10, 1.00E-5 Molar): 106.72% | TGI (TK-10; listed as D - 795311 / 1): > 1.00E-4 Molar | TGI (EKVX): >100 µM | GI % (EKVX; 10 μM): 50% | Growth Percent (EKVX; 1.00E-5 Molar): 50.45% | TGI (EKVX; listed as D - 795311 / 1): > 1.00E-4 Molar | TGI (HOP-62): 25.0 µM | GI % (HOP-62; HOP-62, 10 μM): 25% | Growth Percent (HOP-62; HOP-62, 1.00E-5 Molar): 75.35% | TGI (HOP-62; listed as D - 795311 / 1): 2.50E-5 Molar | TGI (HL-60(TB); HL60(TB)): 4.80 µM | TGI (HL-60(TB); HL-60(TB)): 4.80E-6 Molar | GI % (HL-60(TB); HL-60(TB), 10 μM): 123% | Growth Percent (HL-60(TB); HL-60(TB), 1.00E-5 Molar): -22.61% | TGI (MALME-3M): 6.03 µM | GI % (MALME-3M; 10 μM): 49% | Growth Percent (MALME-3M; 1.00E-5 Molar): 51.68% | TGI (MALME-3M; listed as D - 795311 / 1): 6.03E-6 Molar | TGI (SW-620): 35.3 µM | GI % (SW-620; SW-620, 10 μM): 64% | Growth Percent (SW-620; SW-620, 1.00E-5 Molar): 36.69% | TGI (SW-620; listed as D - 795311 / 1): 3.53E-5 Molar | TGI (786-0): 71.20 µM | GI % (786-0; 786-0, 10 μM): 36% | Growth Percent (786-0; 786-0, 1.00E-5 Molar): 64.53% | TGI (786-0; listed as D - 795311 / 1): 7.12E-5 Molar | TGI (NCI-H522): 6.59 µM | GI % (NCI-H522; NCI-H522, 10 μM): 86% | Growth Percent (NCI-H522; NCI-H522, 1.00E-5 Molar): 13.81% | TGI (NCI-H522; listed as D - 795311 / 1): 6.59E-6 Molar | GI50 (MDA-MB-435; Homo sapiens, MDA-MB-435): 1.5 µM | TGI (MDA-MB-435; MDA-MB-435): 2.96 µM | GI % (MDA-MB-435; MDA-MB-435, 10 μM): 127% | Growth Percent (MDA-MB-435; MDA-MB-435, 1.00E-5 Molar): -26.64% | TGI (MDA-MB-435; MDA-MB-435, listed as D - 795311 / 1): 2.96E-6 Molar | TGI (OVCAR-3): 5.11 µM | GI % (OVCAR-3; OVCAR-3, 10 μM): 98% | Growth Percent (OVCAR-3; OVCAR-3, 1.00E-5 Molar): 2.10% | TGI (OVCAR-3; listed as D - 795311 / 1): 5.11E-6 Molar | TGI (RXF 393): 7.94 µM | GI % (RXF 393; RXF 393, 10 μM): 89% | Growth Percent (RXF 393; RXF 393, 1.00E-5 Molar): 11.38% | TGI (RXF 393; listed as D - 795311 / 1): 7.94E-6 Molar | TGI (NCI-H23): 38.2 µM | GI % (NCI-H23; NCI-H23, 10 μM): 52% | Growth Percent (NCI-H23; NCI-H23, 1.00E-5 Molar): 48.03% | TGI (NCI-H23; listed as D - 795311 / 1): 3.82E-5 Molar | TGI (IGROV1): 63.10 µM | GI % (IGROV1; IGROV1, 10 μM): 61% | Growth Percent (IGROV1; IGROV1, 1.00E-5 Molar): 39.38% | TGI (IGROV1; listed as D - 795311 / 1): 6.31E-5 Molar | TGI (SK-MEL-28): 36.9 µM | GI % (SK-MEL-28; SK-MEL-28, 10 μM): 41% | Growth Percent (SK-MEL-28; SK-MEL-28, 1.00E-5 Molar): 59.40% | TGI (SK-MEL-28; listed as D - 795311 / 1): 3.69E-5 Molar | GI50 (MOLT-4; MOLT-4): 0.68 µM | TGI (MOLT-4; MOLT-4): 4.54 µM | GI % (MOLT-4; MOLT-4, 10 μM): 110% | Growth Percent (MOLT-4; MOLT-4, 1.00E-5 Molar): -9.90% | TGI (MOLT-4; MOLT-4, listed as D - 795311 / 1): 4.54E-6 Molar | TGI (DU-145): 40.60 µM | GI % (DU-145; DU-145, 10 μM): 34% | Growth Percent (DU-145; DU-145, 1.00E-5 Molar): 66.43% | TGI (DU-145; listed as D - 795311 / 1): 4.06E-5 Molar | TGI (MDA-MB-468): 5.78 µM | GI % (MDA-MB-468; MDA-MB-468, 10 μM): 75% | Growth Percent (MDA-MB-468; MDA-MB-468, 1.00E-5 Molar): 25.19% | TGI (MDA-MB-468; listed as D - 795311 / 1): 5.78E-6 Molar | TGI (A549/ATCC): 39.6 µM | GI % (A549/ATCC; 10 μM): 36% | Growth Percent (A549/ATCC; 1.00E-5 Molar): 63.93% | TGI (A549/ATCC; listed as D - 795311 / 1): 3.96E-5 Molar | TGI (SK-MEL-2): 8.03 µM | GI % (SK-MEL-2; SK-MEL-2, 10 μM): 65% | Growth Percent (SK-MEL-2; SK-MEL-2, 1.00E-5 Molar): 35.06% | TGI (SK-MEL-2; listed as D - 795311 / 1): 8.03E-6 Molar | TGI (LOX IMVI): 3.06 µM | Growth Percent (LOX IMVI; 1.00E-5 Molar): 4.42% | GI50 (LOX IMVI; Homo sapiens): 1.26 µM | TGI (LOX IMVI; listed as D - 795311 / 1): 3.06E-6 Molar | TGI (U251): 17.3 µM | GI % (U251; U251, 10 μM): 60% | Growth Percent (U251; U251, 1.00E-5 Molar): 39.96% | TGI (U251; listed as D - 795311 / 1): 1.73E-5 Molar
